The text below walks through data of patent US20080281105A1, “Novel Quinolinium Salts and Derivatives” (IMMUSOL INCORPORATED, priority 2005, published 2008).

Usually EC50 stands for the concentration that produces a half-maximal response. Low values mean higher potency in that assay, high ones lower potency in that assay.

The subject of one data set is H460 NSCL cells. The data set is described as follows: Non-small cell lung cancer (NSCL) xenograft early stage model in nude mice. It counts as in vivo. As to conditions: NSCL, H460 xenograft, I.p. As to the method: The anti-tumor activity of the compound of Example 56 was tested in a nude mice xenograft early stage model. Female athymic nude (nu/nu) mice were inoculated with H460 NSCL cells and divided into two groups. The first group was dosed with vehicle (control), and the second group was dosed i. p. with the compound of Example 56 on a daily basis (6 times/week).
On to `CCCCn1c(C)c(C=O)c(/C=C/c2ccc3cc(N(C)C)ccc3[n+]2C)c1C.CS(=O)(=O)[O-]` [Example 56], for which the “Result: Tumor reduction” value is listed as “Tumor reduction (41%)”.

The same data set, now with this note: dosed i.p. daily (6 times/week); p<0.05; FIG. 2.
In the case of `CCCCn1c(C)c(C=O)c(/C=C/c2ccc3cc(N(C)C)ccc3[n+]2C)c1C.CS(=O)(=O)[O-]` [Example 56], the “H460 tumor size as compared to control” value is on record as “significant reduction”.

Staying with this data set, now noted: nude mice, H460 xenograft, i.p. daily (6 times/week).
On to `CCCCn1c(C)c(C=O)c(/C=C/c2ccc3cc(N(C)C)ccc3[n+]2C)c1C.CS(=O)(=O)[O-]` [Example 56], for which the toxicity entry is “no apparent toxicity”.

A further data set deals with transformed cell growth.
Assay: not given
To be noted: reported in the literature; cited from earlier work.
With `CC[n+]1c(C=Cc2ccc(N(C)C)cc2)ccc2ccccc21` [quinaldine red], the transformed cell growth result is on record as “inhibitor of transformed cell growth”.

In another data set the test system is Lewis lung cancer cells. The data set is described as follows: Mouse Lewis lung cancer (LLC) xenograft model. It counts as in vivo, mice. As to conditions: 2 mg/kg intraperitoneal, 6 times per week; day 15; p<0.05; FIG. 6. The method, then:
Using the mouse Lewis lung cancer (LLC) xenograft model, female C57BL mice (4-6 weeks old) were inoculated (s.c.) with 5×10^5 Lewis lung cancer cells in PBS on the flanking site. Animals were randomly divided into treatment and control groups (n=8) based on tumor size when average tumor size reached 100 mm^3. Animals in the treatment group received the compound of Example 36 (also designated IMS2143) or the compound of Example 47 daily at 2 mg/kg via intraperitoneal dosing, 6 times per week respectively. The control group was injected with 0.9% NaCl. Tumor size and body weight were measured twice per week. Tumor volume was calculated using the formula TV=length×width×width/2.
For `Cc1cc(/C=C/c2ccc3cc(N(C)C)ccc3[n+]2C)cc(C)c1OCc1ccccc1.O=S(=O)([O-])C(F)(F)F` [Example 47], the LLC tumor growth result was “significantly suppressed tumor growth”.

For the next data set, the system named is PC3 prostate cells. Put plainly: PC3 medium-staged prostate xenograft model, combination therapy. It is filed as in vivo, mice. As to conditions: Example 1 P.O. daily, doxorubicin or paclitaxel i.p.; tumors around 100 mm^3 at start; FIG. 3 and 4. As to the method:
The anti-tumor activity of compounds of the invention in combination with at least one additional chemotherapeutic agent was also tested in a nude mice xenograft model.
A. Female athymic nude (nu/nu) mice were inoculated with PC3 prostate cells. When tumor volumes reached around 100 mm^3, the animals were divided into four groups with average size of tumors similar among the four groups. The first group was dosed with vehicle (as control), the second group with the compound of Example 1 (P.O. daily), the third with doxorubicin (i.p.) and the fourth with the combination (i.p. Dox/p.o. compound of Example 1).
B. Female athymic nude (nu/nu) mice were inoculated with PC3 prostate cells. When tumor volumes reached around 100 mm^3, the animals were divided into four groups with average size of tumors similar among the four groups. The first group was dosed with vehicle (as control), the second group with the compound of Example 1 (P.O. daily), the third with paclitaxel (taxol) (i.p.) and the fourth with the combination (ip. taxol/p.o. compound of Example 1).
Take `CC(=O)O[C@H]1C(=O)[C@@]2(C)[C@H]([C@H](OC(=O)c3ccccc3)[C@]3(O)C[C@H](OC(=O)[C@H](O)[C@@H](NC(=O)c4ccccc4)c4ccccc4)C(C)=C1C3(C)C)[C@]1(OC(C)=O)CO[C@@H]1C[C@@H]2O` [Taxol, paclitaxel, reference compound]: the “growth of PC3 medium-staged xenograft tumors” value was “reduced tumor size significantly”.

In the next data set the test system is A549 cancer cells. The data set is described as follows: A549 NSCL xenograft model, combination with 2DG. As to conditions: 2DG 300 mg/kg, Example 36 2 mg/kg, i.p. daily (6 times per week); Example 36 alone p<0.05 at day 24 and 27; combination p<0.05 at day 13-27; FIG. 7. It counts as in vivo, mice. The source says:
Because the compounds of the invention may be more toxic to cancer cells deprived of glucose or treated with 2DG in vitro, the combination of 2DG with such compounds should have increased anti-tumor efficacy in vivo as compared with either agent alone. Accordingly, the effect of a combination therapy of the compound of Example 36 and 2DG using A549 NSCL xenograft model was examined.
Female athymic nude mice (nu/nu) (4-6 weeks old) were inoculated (s.c.) with 5×10^6 A549 cancer cells in PBS on the flanking site. After the tumors reached an average size ˜100 mm^3, the animals were divided into four treatment groups—0.9% NaCl (control), 2DG at 300 mg/kg, the compound of Example 36 at 2 mg/kg, and a combination of 2DG (300 mg/kg) and the compound of Example 36 (2 mg/kg). All the treatments were delivered by intraperitoneal injection daily (6 times per week). Tumor size and body weight were measured twice per week. Tumor volume was calculated using the formula TV=length×width×width/2.
Turning to `O=CC[C@@H](O)[C@H](O)[C@H](O)CO` [Example 2DG, 2-deoxyglucose, reference compound], the A549 tumor growth entry is reported as “no response”.

The subject of the next data set is eukaryotic translation system.
Assay: not given
To be noted: reported by Malina; cited from earlier work.
For the compound `Cc1cc(C=Cc2ccc3cc(OC(N)=O)ccc3[n+]2C)c(O)c2ncccc12` [NSC 86372, 6-(aminocarbonyloxy)-2-(2-(8-hydroxy-5-methylquinolin-7-yl)vinyl)-1-methylquinolinium], the protein synthesis result is “inhibited protein synthesis”.

The test system of the next data set is A549 cancer cells. Put plainly: A549 xenograft model, combination with taxol. It is filed as in vivo, mice. To be noted: paclitaxel 20 mg/kg once per 4 days i.p.; IMS2155 2 mg/kg daily i.p.; p<0.05 for monotherapies; FIG. 5. As to the method:
Combination treatment with taxol and the compound of Example 47 (also designated IMS2155) in the A549 (NCLC) model was tested. Taxol is one of standards of care for lung cancer.
Female athymic nude mice (nu/nu) (4-6 weeks old) were inoculated (s.c.) with 5×10^6 A549 cancer cells in PBS on the flanking site. The animals were divided into four treatment groups when the average tumor size reached 150 mm^3: group 1 (PBS daily i.p. dosing), group 2 (20 mg/kg paclitaxel once per 4 days i.p. dosing), group 3 (2 mg/kg IMS2155 daily i.p. dosing) and group 4 (20 mg/kg paclitaxel once per 4 days i.p. dosing and 2 mg/kg IMS2155 daily i.p. dosing). The tumor size and body weight was measured twice per week. Tumor volume was calculated using the formula TV=length×width×width/2.
It is noteworthy that IMS2155 worked almost as well as Taxol at the MTD dose (20 mg/kg for this strain of mice).
For the compound `CC(=O)O[C@H]1C(=O)[C@@]2(C)[C@H]([C@H](OC(=O)c3ccccc3)[C@]3(O)C[C@H](OC(=O)[C@H](O)[C@@H](NC(=O)c4ccccc4)c4ccccc4)C(C)=C1C3(C)C)[C@]1(OC(C)=O)CO[C@@H]1C[C@@H]2O` [Taxol, paclitaxel, reference compound], the A549 tumor size result is listed as “significant reduction in tumor size”.
Consider `Cc1cc(/C=C/c2ccc3cc(N(C)C)ccc3[n+]2C)cc(C)c1OCc1ccccc1.O=S(=O)([O-])C(F)(F)F` [Example 47], for which the A549 tumor size entry was “significant reduction in tumor size”.

For a further data set, the system named is Panc-1, HCT-116, Pc3M/N, HEPG2, ASPC1, or H460 cells. The data set is described as follows: Reduction of viable cell growth in glucose deprived media (liquid culture, alamarBlue). It is filed as cell-based. As to conditions: at the concentration stated in Table 3.
In the case of `CN(C)c1ccc2c(ccc(/C=C/c3cc(C(=O)c4ccc(F)cc4)cn3C)[n+]2C)c1.O=S(=O)([O-])C(F)(F)F` [Example 52], the “reduction of viable cell growth” value is “inactive”.

The data set is the same for the next values; noted with them: concentration giving at least 50% reduction of viable cell growth.
Take `COc1cc(/C=C/c2ccc3cc(N(C)C)ccc3[n+]2C)ccc1OCc1ccccc1` [Example 45]: the EC50 is under 1000 nM.
As for `CN(C)c1ccc2c(ccc(/C=C/c3ccc(-c4nn(C)cc4C(F)(F)F)s3)[n+]2C)c1` [Example 38], the EC50 amounted to 1000 nM.
The compound `CN(C)c1ccc2c(ccc(/C=C/c3cc(C(=O)c4ccc(F)cc4)cn3C)[n+]2C)c1.O=S(=O)([O-])C(F)(F)F` [Example 52] had an EC50 of over 1000 nM.
The compound `CN(C)c1ccc2c(ccc(/C=C/c3ccc(-c4ccccc4)s3)[n+]2C)c1` [Example 32] gave an EC50 of 1000 nM.
For the compound `CN(C)c1ccc2c(ccc(/C=C/c3cccc(-c4cccs4)n3)[n+]2C)c1` [Example 31], the EC50 turned out to be 1000 nM.
Regarding `CN(C)c1ccc2c(ccc(/C=C/c3ccc(C#Cc4ccccc4)s3)[n+]2C)c1` [Example 50], the EC50 was under 1000 nM.
Turning to `CN(C)c1ccc2c(ccc(/C=C/c3cccc(Oc4ccccc4)c3)[n+]2C)c1` [Example 34], the EC50 was found to be 1000 nM.
The compound `CN(C)c1ccc2c(ccc(/C=C/c3cn(S(=O)(=O)c4ccccc4)c4ccccc34)[n+]2C)c1` [Example 41] registered an EC50 of 1000 nM.
The compound `CN(C)c1ccc2c(ccc(/C=C/c3sccc3Oc3ccccc3)[n+]2C)c1` [Example 49] yielded an EC50 of under 1000 nM.
On to `Cc1cc(/C=C/c2ccc3cc(N4CCOCC4)ccc3[n+]2C)c(C)n1-c1ccccc1` [Example 26], for which the EC50 was determined as 1000 nM.
Same read-out and setting: next, `CCCCn1c(C)c(C=O)c(/C=C/c2ccc3cc(N4CCOCC4)ccc3[n+]2C)c1C` [Example 27]: over 1000 nM.
On to `CCOC(=O)c1c(/C=C/c2ccc3cc(N(C)C)ccc3[n+]2C)c(C)n(-c2ccccc2)c1C` [Example 54], for which the EC50 is under 1000 nM.
`CN(C)c1ccc2c(ccc(/C=C/c3ccc4oc(C(=O)c5ccc(Cl)cc5)cc4c3)[n+]2C)c1` [Example 42]: the midpoint of the response, the EC50, lay at 1000 nM.
For `Cc1cc(/C=C/c2ccc3cc(N4CCC(C)CC4)ccc3[n+]2C)c(C)n1-c1ccccc1` [Example 30], the response was half-maximal at 1000 nM (EC50).
Turning to `Cc1cc(/C=C/c2ccc3cc(N(C)C)ccc3[n+]2C)cc(C)c1OCc1ccccc1.O=S(=O)([O-])C(F)(F)F` [Example 47], the EC50 was under 1000 nM.
As to `Cc1cc(/C=C/c2ccc3cc(N4CCCCC4)ccc3[n+]2C)c(C)n1-c1ccccc1` [Example 29], the concentration for a half-maximal effect (EC50) is 1000 nM.
In turn, `CN(C)c1ccc2c(ccc(/C=C/c3coc4ccccc4c3=O)[n+]2C)c1` [Example 40] came in with an EC50 of 1000 nM.
In the case of `CCCCn1c(C)c(C=O)c(/C=C/c2ccc3cc(C)ccc3[n+]2C)c1C` [Example 57], the EC50 is under 1000 nM.
`CN(C)c1ccc2c(ccc(/C=C/c3ccc(-c4cc(C(F)(F)F)nn4C)s3)[n+]2C)c1` [Example 37]: it took 1000 nM to reach a half-maximal effect (EC50).
In turn, `CCOC(=O)c1c(/C=C/c2ccc3cc(N(C)C)ccc3[n+]2C)c(C)n(Cc2cccs2)c1C` [Example 55] registered an EC50 of under 1000 nM.
`Cc1cc(/C=C/c2ccc3cc(N(C)C)ccc3[n+]2C)oc1C` [Example 33] yielded an EC50 of 1000 nM.
The compound `CCCCc1nc(/C=C/c2ccc3cc(N(C)C)ccc3[n+]2C)c(Cl)[nH]1` [Example 39] gave an EC50 of over 1000 nM.
Compound `CCn1c2ccccc2c2cc(/C=C/c3ccc4cc(N(C)C)ccc4[n+]3C)ccc21` [Example 51] displayed an EC50 of under 1000 nM.
The compound `CCCCn1c(C)c(C=O)c(/C=C/c2ccc3cc(Cl)ccc3[n+]2C)c1C` [Example 58] showed an EC50 of under 1000 nM.
In turn, `CN(C)c1ccc2c(ccc(/C=C/c3ccc(OCc4ccsc4C#N)cc3)[n+]2C)c1` [Example 43] had an EC50 of under 1000 nM.
The compound `CCCCn1c(C)c(C=O)c(/C=C/c2ccc3cc(N(C)C)ccc3[n+]2C)c1C.CS(=O)(=O)[O-]` [Example 56] gave an EC50 of under 1000 nM.
`COCCn1c(C)c(C=O)c(/C=C/c2ccc3cc(N(C)C)ccc3[n+]2C)c1C` [Example 25] displayed an EC50 of under 1000 nM.
The compound `CN(C)c1ccc2c(ccc(/C=C/c3ccc(Oc4ccccc4)cc3)[n+]2C)c1` [Example 35] returned an EC50 of under 1000 nM.
The compound `CCOC(=O)c1c(/C=C/c2ccc3cc(N(C)C)ccc3[n+]2C)c(C)n(C2CC2)c1C` [Example 53] displayed an EC50 of under 1000 nM.
`Cc1c(C=O)c(/C=C/c2ccc3cc(N(C)C)ccc3[n+]2C)c(C)n1-c1ccccc1` [Example 28]: the EC50 is under 1000 nM.
For the compound `CN(C)c1ccc2c(ccc(/C=C/c3ccc(OC(F)(F)F)cc3)[n+]2C)c1` [Example 44], the EC50 turned out to be 1000 nM.
As for `CN(C)c1ccc2c(ccc(/C=C/c3ccc(OCc4ccccc4)cc3)[n+]2C)c1` [Example 46], the half-maximal effective concentration (EC50) is under 1000 nM.
As for `Cc1c(/C=C/c2ccc3cc(N(C)C)ccc3[n+]2C)cnn1-c1ccccc1` [Example 48], the half-maximal effective concentration (EC50) was over 1000 nM.
